In ChEMBL document CHEMBL3045834 (Med Chem Res, 2004):

Columns and labels:
Rattus norvegicus [1] = organism: Rattus norvegicus; test: Selectivity ratio for antagonist activity at alpha1D adrenergic receptor in Rattus norvegicus (rat) aorta to antagonist activity at alpha1A adrenergic receptor in vas deferens
Rattus norvegicus [2] = organism: Rattus norvegicus; test: Selectivity ratio for antagonist activity at alpha1B adrenergic receptor in Rattus norvegicus (rat) spleen to antagonist activity at alpha1D adrenergic receptor in aorta; assay type: tissue-based
Rattus norvegicus [3] = organism: Rattus norvegicus; test: Selectivity ratio for antagonist activity at alpha1B adrenergic receptor in Rattus norvegicus (rat) spleen to antagonist activity at alpha1A adrenergic receptor in rat vas deferens; assay type: tissue-based
[4] = target: T1, Alpha-1D adrenergic receptor (Rattus norvegicus, UniProt P23944); test: Competitive antagonist activity at alpha1D adrenergic receptor in Rattus norvegicus (rat) aorta assessed as inhibition of (-)-noradrenaline-induced contraction; details: read-out: pA2 (converted)
T1 sequence (P23944 whole entry): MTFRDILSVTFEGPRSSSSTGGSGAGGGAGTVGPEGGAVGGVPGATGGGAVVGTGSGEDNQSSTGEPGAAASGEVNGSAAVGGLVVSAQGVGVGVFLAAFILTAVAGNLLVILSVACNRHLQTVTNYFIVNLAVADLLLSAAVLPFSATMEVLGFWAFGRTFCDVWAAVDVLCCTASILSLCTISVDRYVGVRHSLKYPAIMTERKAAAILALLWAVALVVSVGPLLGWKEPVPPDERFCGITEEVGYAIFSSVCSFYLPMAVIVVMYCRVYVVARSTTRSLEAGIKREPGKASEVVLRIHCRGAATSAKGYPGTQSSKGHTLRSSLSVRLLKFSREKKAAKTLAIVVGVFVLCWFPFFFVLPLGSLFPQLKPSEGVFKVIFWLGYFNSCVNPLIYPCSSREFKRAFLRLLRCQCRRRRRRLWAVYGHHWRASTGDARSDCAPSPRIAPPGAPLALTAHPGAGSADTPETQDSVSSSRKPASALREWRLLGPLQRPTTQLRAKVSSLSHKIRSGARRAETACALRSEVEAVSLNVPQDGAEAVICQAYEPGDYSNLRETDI

[5] = target: T2, Alpha-1B adrenergic receptor (Rattus norvegicus) (UniProt P15823); test: Noncompetitive antagonist activity at alpha1B adrenergic receptor in Rattus norvegicus (rat) spleen assessed as inhibition of (-)-phenylephrine-induced contraction
T2 sequence (whole entry): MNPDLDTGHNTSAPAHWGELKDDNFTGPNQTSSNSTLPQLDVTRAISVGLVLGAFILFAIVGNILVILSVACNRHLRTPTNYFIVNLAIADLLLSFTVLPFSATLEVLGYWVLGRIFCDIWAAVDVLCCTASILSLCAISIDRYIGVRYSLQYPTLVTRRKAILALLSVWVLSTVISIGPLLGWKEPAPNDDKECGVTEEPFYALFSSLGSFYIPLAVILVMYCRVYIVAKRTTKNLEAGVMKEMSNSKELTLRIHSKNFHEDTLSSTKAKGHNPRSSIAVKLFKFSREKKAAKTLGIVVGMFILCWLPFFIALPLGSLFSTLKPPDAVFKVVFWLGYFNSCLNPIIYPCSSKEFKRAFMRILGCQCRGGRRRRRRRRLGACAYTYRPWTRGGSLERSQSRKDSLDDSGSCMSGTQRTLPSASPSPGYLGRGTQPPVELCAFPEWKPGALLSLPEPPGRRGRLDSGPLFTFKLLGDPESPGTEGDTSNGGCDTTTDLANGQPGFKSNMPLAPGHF

[6] = target: T3, Alpha-1A adrenergic receptor (Rattus norvegicus, UniProt P43140); test: Competitive antagonist activity at alpha1A adrenergic receptor in Rattus norvegicus (rat) vas deferens assessed as inhibition of (-)-noradrenaline-induced contraction; details: read-out: pA2 (converted)
T3 sequence (P43140 whole entry): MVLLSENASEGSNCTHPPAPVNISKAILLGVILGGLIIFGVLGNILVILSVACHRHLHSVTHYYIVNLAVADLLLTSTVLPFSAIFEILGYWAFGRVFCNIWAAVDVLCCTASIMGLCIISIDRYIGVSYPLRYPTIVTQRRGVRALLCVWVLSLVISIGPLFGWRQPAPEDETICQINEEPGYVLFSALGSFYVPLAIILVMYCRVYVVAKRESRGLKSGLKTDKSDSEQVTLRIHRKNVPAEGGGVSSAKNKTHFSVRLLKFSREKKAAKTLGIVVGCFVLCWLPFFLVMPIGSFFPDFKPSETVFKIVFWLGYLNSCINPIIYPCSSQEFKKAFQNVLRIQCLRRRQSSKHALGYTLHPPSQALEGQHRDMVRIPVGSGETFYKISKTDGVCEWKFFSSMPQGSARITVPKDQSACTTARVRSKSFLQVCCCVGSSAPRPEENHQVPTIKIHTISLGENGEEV

[7] = target: T4, Alpha-1D adrenergic receptor (Homo sapiens, UniProt P25100); test: Displacement of [3H]prazosin from Homo sapiens (human) alpha1D adrenergic receptor
T4 sequence (P25100 whole entry): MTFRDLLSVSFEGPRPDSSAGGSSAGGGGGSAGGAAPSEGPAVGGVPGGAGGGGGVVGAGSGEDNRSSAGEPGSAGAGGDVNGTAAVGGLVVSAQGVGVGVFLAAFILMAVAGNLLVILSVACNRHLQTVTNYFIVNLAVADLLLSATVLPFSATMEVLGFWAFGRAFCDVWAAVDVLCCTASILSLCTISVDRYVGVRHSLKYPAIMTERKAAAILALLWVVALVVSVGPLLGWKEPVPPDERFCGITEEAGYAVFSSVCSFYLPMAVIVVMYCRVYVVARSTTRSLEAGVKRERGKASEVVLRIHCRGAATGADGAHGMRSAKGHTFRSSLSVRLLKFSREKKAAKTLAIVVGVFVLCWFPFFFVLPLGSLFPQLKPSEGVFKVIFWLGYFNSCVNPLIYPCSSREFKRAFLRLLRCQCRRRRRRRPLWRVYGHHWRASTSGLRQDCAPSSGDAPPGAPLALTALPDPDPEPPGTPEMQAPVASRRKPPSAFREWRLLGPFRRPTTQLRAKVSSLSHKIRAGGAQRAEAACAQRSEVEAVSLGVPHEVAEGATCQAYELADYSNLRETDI

[8] = target: T5, Alpha-1B adrenergic receptor (Homo sapiens, UniProt P35368); test: Displacement of [3H]prazosin from Homo sapiens (human) alpha1B adrenergic receptor
T5 sequence (P35368 whole entry): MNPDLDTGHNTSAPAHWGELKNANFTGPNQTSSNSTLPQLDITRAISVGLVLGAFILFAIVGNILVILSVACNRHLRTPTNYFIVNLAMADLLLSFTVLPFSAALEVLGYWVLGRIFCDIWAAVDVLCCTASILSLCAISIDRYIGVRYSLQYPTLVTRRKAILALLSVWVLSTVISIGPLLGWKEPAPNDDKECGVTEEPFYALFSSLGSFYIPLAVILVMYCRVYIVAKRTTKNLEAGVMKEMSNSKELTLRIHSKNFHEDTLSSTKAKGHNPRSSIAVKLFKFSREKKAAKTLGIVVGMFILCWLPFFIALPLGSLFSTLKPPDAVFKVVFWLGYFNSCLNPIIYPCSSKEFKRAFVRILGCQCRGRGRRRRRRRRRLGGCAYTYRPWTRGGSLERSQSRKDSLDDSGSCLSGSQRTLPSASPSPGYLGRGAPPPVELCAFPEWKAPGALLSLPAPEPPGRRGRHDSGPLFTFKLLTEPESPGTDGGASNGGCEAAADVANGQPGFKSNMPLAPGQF

[9] = target: T6, Alpha-1A adrenergic receptor (Homo sapiens, UniProt P35348); test: Displacement of [3H]prazosin from Homo sapiens (human) alpha1A adrenergic receptor
T6 sequence (P35348 whole entry): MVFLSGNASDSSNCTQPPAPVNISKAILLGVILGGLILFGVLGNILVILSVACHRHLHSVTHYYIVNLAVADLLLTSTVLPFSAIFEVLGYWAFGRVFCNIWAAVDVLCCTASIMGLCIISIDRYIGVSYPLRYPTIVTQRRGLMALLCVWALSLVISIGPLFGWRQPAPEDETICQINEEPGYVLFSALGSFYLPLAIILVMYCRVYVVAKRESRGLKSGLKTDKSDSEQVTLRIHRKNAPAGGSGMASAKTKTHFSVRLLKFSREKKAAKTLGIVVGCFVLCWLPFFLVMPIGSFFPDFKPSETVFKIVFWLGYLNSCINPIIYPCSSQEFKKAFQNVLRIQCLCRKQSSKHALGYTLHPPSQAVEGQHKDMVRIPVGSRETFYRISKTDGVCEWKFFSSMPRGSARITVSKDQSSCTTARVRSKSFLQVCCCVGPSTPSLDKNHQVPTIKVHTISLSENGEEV

[10] = target: T7, Alpha-1A adrenergic receptor (Rattus norvegicus) (UniProt P43140); test: Noncompetitive antagonist activity at alpha1A adrenergic receptor in Rattus norvegicus (rat) vas deferens assessed as inhibition of (-)-noradrenaline-induced contraction
T7 sequence (whole entry): T3 sequence (P43140 whole entry)

[11] = target: T3, Alpha-1A adrenergic receptor; test: Antagonist activity at alpha1A adrenoreceptor in Rattus norvegicus (rat) small mesenteric artery; details: read-out: pA2 (converted)
[12] = target: T5, Alpha-1B adrenergic receptor; test: Binding affinity to alpha1B adrenoreceptor (unknown origin) by radioligand binding assay

Row | Selectivity ratio (Rattus norvegicus [1]) | Selectivity ratio (Rattus norvegicus [3]) | Kb [4] [nM] | pKb [5] | Kb [6] [nM] | Ki [7] [nM] | Ki [8] [nM] | Ki [9] [nM] | pKb [10] | Kb [11] [nM] | Ki [12] [nM] | SMILES | Selectivity ratio (Rattus norvegicus [2])
1 | 1.6 | 724 | 89.1 | 9.71 | 141 | 3.63 | 0.871 | 27.5 | – | – | – | COc1ccc(C(=O)N2CCN(c3nc(N)c4cc(OC)c(OC)cc4n3)[C@H]3CCCC[C@@H]32)o1 | 457
2 | 0.5 | 199 | 58.9 | 9.83 | – | 1.55 | 0.309 | 3.47 | 7.53 | – | – | COc1cc2nc(N3CCN(C(=O)c4ccc(Br)o4)[C@H]4CCCC[C@@H]43)nc(N)c2cc1OC | 398
3 | – | – | – | – | – | – | – | – | – | 16.6 | 0.692 | COc1cc2nc(N3CCN(C(=O)c4ccco4)[C@H]4CCCC[C@H]43)nc(N)c2cc1OC [(+)-CYCLAZOSIN] | –
4 | 0.2 | 302 | 214 | 9.85 | – | 7.41 | 1.38 | 25.7 | 7.37 | – | – | COc1cc2nc(N3CCN(C(=O)c4ccc(C(C)=O)o4)[C@H]4CCCC[C@@H]43)nc(N)c2cc1OC | 1510
5 | 2.3 | 407 | 91.2 | 9.28 | – | 4.79 | 0.871 | 23.4 | 6.67 | – | – | COc1cc2nc(N3CCN(C(=O)c4ccc(C)o4)[C@H]4CCCC[C@@H]43)nc(N)c2cc1OC | 174
